Results published in US10144952B2, “Stabilization and isolation of extracellular nucleic acids” (QIAGEN GmbH, priority 2013, dated 2018).
pIC50: −log10 of the molar value. Where a name gives a salt, the structure may show the parent alone. Where a SMILES comes first, the peptide text is derived from it. The star is where a group is joined. Cbz = O=C(OCc1ccccc1)*; CH2F = FC*

How the values were obtained:
calpain II = target: T1, calpain II (Homo sapiens, UniProt P17655); details: irreversible inhibitor; cited from earlier work
T1 sequence (P17655 1-700): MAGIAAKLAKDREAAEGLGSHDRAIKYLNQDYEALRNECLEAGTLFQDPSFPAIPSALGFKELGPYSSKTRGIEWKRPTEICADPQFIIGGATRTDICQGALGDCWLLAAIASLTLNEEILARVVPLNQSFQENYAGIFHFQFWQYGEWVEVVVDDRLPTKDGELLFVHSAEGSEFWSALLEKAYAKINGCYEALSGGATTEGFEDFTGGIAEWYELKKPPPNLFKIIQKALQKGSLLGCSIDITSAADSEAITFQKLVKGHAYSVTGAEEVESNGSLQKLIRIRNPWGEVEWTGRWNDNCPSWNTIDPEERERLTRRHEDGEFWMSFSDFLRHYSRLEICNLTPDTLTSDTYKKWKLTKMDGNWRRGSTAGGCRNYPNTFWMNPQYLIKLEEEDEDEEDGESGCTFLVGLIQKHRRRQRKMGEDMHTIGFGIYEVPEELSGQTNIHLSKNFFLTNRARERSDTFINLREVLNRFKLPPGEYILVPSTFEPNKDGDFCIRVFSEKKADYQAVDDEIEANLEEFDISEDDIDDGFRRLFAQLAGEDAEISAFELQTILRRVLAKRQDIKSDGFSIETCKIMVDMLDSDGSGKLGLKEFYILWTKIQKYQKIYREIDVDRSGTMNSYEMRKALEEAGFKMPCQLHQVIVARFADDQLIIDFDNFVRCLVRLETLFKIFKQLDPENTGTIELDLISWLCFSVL
T1 sequence (P04632 1-268 partner): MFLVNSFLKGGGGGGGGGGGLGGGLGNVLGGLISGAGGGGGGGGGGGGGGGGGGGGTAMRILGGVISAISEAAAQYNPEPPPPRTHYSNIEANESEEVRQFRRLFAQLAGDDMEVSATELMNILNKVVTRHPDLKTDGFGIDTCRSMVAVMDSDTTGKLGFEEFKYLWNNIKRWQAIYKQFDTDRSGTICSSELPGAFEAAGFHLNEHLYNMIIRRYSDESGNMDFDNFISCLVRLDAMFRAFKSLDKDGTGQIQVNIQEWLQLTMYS

cathepsin L = cathepsin L (Homo sapiens, UniProt P07711); details: cited from earlier work
[1] = test system: Bid-induced cyctochrome c release from HeLa cell mitochondria; details: at 5 μM; cited from earlier work
[2] = test system: release of genomic DNA from white blood cells in whole blood (18S ribosomal DNA 66 bp and 500 bp amplicons); experiment: 18S rDNA qPCR: increase of DNA in plasma of stored whole blood; format: cell-based, human; details: for increase of 18S DNA from day 0: Example 5, 2.1, 20 μM, within 7 days of storage at RT; for released DNA / stabilization capability: 3 and 6 days at room temperature
Text: Detection of ribosomal 18S DNA by quantitative real-time PCR, makes it possible to calculate the x-fold increase of DNA from day 0 to day 3 or 7 (calculation: division of day 3 (or 7) copies by day 0 copies).

[3] = test system: ladder-like pattern of genomic DNA fragments (apoptosis) in whole blood; experiment: chip gel electrophoresis of circulating cell-free DNA; format: cell-based; details: 20 μM in whole blood; day 3 and day 7
Experimental: 1.3.1 Measurement of the blood cell stability/DNA release by the determination of DNA size distribution using a chip gel electrophoresis (2100 Bioanalyzer; Agilent Technologies; Inc., USA) according to manufacturer's instruction (see handbook Agilent DNA 7500 and DNA 12000 Kit Guide), but 1.5 μl instead of 1 μl sample were transferred to the wells.
Each tested caspase inhibitor was added to whole blood samples (20 μM end concentration in 10 ml blood; blood was collected into Vacutainer K2E Tubes; BD). The whole blood sample was processed as described in section 1 (plasma preparation and nucleic acid isolation).
The eluted circulating cell-free DNA was separated by size using chip gel electrophoresis (for details on the method see above). […] The DMSO control and the K2E blood (not treated according to the teachings of the present invention) show the same ladder-like pattern of bands. This pattern occurs in samples where apoptosis takes place. During apoptosis, endonucleases degrade genomic DNA at inter-nucleosomal linker regions and produce DNA fragments of circa 180 bp or multiples of 180 bp. Thus, apoptosis occurs in samples which show a clear ladder-like pattern. Furthermore, the strength (darkness) of the pattern is decisive. The darker the bands, the more genomic DNA was released from the cells and thus contaminates the extracellular nucleic acid population.

cells = details: cited from earlier work
[4] = test system: transcriptional activation of COX-2; details: cited from earlier work
[5] = cited from earlier work; for t1/2: buffer
[6] = test system: etoposide-induced cortical neuron death; details: cited from earlier work
[7] = test system: myocardial infarct size during reperfusion; details: cited from earlier work

Sequence of cathepsin L (P07711 114-333, species assumed): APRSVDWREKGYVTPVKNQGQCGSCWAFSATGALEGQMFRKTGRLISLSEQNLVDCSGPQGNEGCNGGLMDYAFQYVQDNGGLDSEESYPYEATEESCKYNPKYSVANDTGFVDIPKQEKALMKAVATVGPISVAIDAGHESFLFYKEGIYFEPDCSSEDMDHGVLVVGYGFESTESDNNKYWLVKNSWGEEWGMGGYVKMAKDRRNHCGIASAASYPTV

For `CC(C)C[C@H](NC(=O)OCc1ccccc1)C(=O)N[C@@H](CC(C)C)C(=O)N[C@@H](Cc1ccc(O)cc1)C(=O)CF` [Calpain Inhibitor IV, Z-Leu-Leu-Tyr-CH2F] (HELM PEPTIDE1{[O=C(OCc1ccccc1)[*:2]].L.L.Y.[FC[*:1]]}$$$$V2.0), the “k2 calpain II” value (calpain II) is given as 28,900 M-1s-1). Also acts as an inhibitor of cathepsin L (k2 = and the “k2 cathepsin L” value (cathepsin L) is given as 680,000 M-1s-1).
In the case of `OC(CN1CCNCC1)Cn1c2ccc(Br)cc2c2cc(Br)ccc21` (racemic) [Bax Channel Blocker, (±)-1-(3,6-Dibromocarbazol-9-yl)-3-piperazin-1-yl-propan-2-ol,bis TFA], the “inhibition of Bid-induced cytochrome c release” value [1] is listed as “cyctochrome c release from HeLa cell mitochondria (~80%”.
In the case of `CC(C)C(NC(=O)c1ccc2ccccc2n1)C(=O)NC(CC(=O)O)C(=O)COc1c(F)cccc1F` (stereo not drawn) [Q-VD-OPh, Quinoline-Val-Asp-CH2-OPH], the “increase of 18S DNA from day 0” value [2] is listed as “reduced increase of DNA”, the “ladder-like pattern of cell-free DNA” value [3] is listed as “significantly reduced ladder-like patterns” and the toxicity to cells (cells) is listed as “not toxic to cells even at extremely high concentrations”.
For `COC(=O)C[C@H](NC(=O)[C@H](C)NC(=O)[C@@H](NC(=O)OCc1ccccc1)C(C)C)C(=O)CF` [Z-Val-Ala-Asp(OMe)-FMK] (Cbz-Val-Ala-Asp(OMe)-CH2F), the “increase of 18S DNA from day 0” value [2] was “more prominent on day 7” and the “ladder-like pattern of cell-free DNA” value [3] was “reduced ladder-like pattern”.
In the case of `CCCC(N)=O` [butanamide], the “released DNA / stabilization capability” value ([2]; Example 2, 2.5, 3 or 3.5% butanamide or 5% DMAA with 1 μM caspase inhibitor and EDTA) was “at least comparable stabilization capabilities to DMAA”, the “released DNA / stabilization capability” value ([2]; Example 3, butanamide 0.5-2% with DMPA 2.5-1%, 1 μM caspase inhibitor, EDTA) was “comparable stabilization capabilities” and the “increase in 18S rDNA” value ([2]; Example 4, 0.5, 1.5 and 2.5% (w/v) butanamide with 1 μM caspase inhibitor and EDTA) was “significantly reduced increase in 18S rDNA”.
In the case of `O=c1c(O)c(-c2ccc(O)cc2)oc2cc(O)cc(O)c12` [Kaempferol], the pIC50 [4] is given as > 4.82.
For `O=[N+]([O-])c1ccc(-c2cn3c4c(sc3n2)CCCC4)cc1` [Pifithrin-α, p-Nitro, Cyclic], the t1/2 [5] is listed as 6 h, the “longer half-life than Pifithrin-α” value ([5]; neuron culture medium at 37° C.) is listed as 50% and the “fold higher potency than Pifithrin-α” value [6] is listed as “A cell-permeable p53 inhibitor that exhibits 10-fold higher potency”.
For `N=c1sc2c(n1CC(=O)c1ccc([N+](=O)[O-])cc1)CCCC2` [Pifithrin-α, p-Nitro], the t1/2 [5] is given as “biological systems (t1/2 = 8h in neuron culture medium at 37° C.)”.
In the case of “Ac-Leu-Glu-His-Asp-CMK (LEHD; HELM PEPTIDE1{[ac].L.E.H.D.[ClC[*:1]]}$$$$V2.0; SMILES CC(=O)N[C@@H](CC(C)C)C(=O)N[C@@H](CCC(=O)O)C(=O)N[C@@H](Cc1c[nH]cn1)C(=O)N[C@@H](CC(=O)O)C(=O)CCl) [Caspase-9 Inhibitor III]”, the “concentration reported to reduce myocardial infarct size” value [7] is listed as “myocardial infarct size during reperfusion (~70 nM)”.
